For this test, the system named is cholesterol biosynthesis in rats. Put plainly: In vivo effect on cholesterol biosynthesis in rats (14C-Acetate Model; plasma 14C-nonsaponifiable lipid). The settings on record: dose suppressing cholesterol synthesis in vivo by 50 percent. More on the design: species or system Male Sprague/Dawley rats. On the procedure: SQ 34,346 in oral or IV dosage form was tested in vivo for its effect on cholesterol biosynthesis in rats (^14C-Acetate Model).
The following in vivo tests employed a rat model system to determine the in vivo cholesterol synthesis inhibitory activity of compounds which show cholesterol synthesis inhibition in whole cell systems (freshly isolated rat hepatocytes and cultured human skin fibroblasts), and which are potent inhibitors of HMG CoA reductase.
The method used for iv and po drug testing were adapted from a procedure originally described by Sandoz (U.S. Patent No. 4,613,610, Sept. 23, 1986, and Int'I Publication No. WO 86/00367, Derwent Nos. 86271640 and 8628274). […]
For iv testing, the salt forms of test compounds were routinely dissolved in saline and injected iv into the tail vein 5 minutes before ^14C-acetate injection. […] Cholesterol synthesis was measured by determining the level of ^14C-nonsaponifiable lipid present in one mL of plasma; the method used is a modification of the method described by Dugan, et al, (Dugan, R.E., L.L. Slakey, A.V. Briedis, and J. Porter, Arch. Biochem. Biophys., 152:21 (1972)). […] Samples were counted for both ^3H and ^14C in 10 mL Optiflour scintillation fluid using a Beckman LS3801 counter programed for double label counting. […]

“(S)-4-[[[4-(4-Fluorophenyl)-1,2-bis(1-methylethyl)-5-phenyl-1H-pyrrol-3-yl]-ethynyl]hydroxyphosphinyl]-3-hydroxybutanoic acid, dilithium salt [SQ 34,346]”: the ED50 amounted to 0.05 mg/kg (i.v., injected into tail vein 5 minutes before 14C-acetate) and 1.13 mg/kg (p.o., given 30 minutes before 14C-acetate).

The values are drawn from patent EP0463456A1, “Phosphorus-containing HMG-CoA reductase inhibitors, new intermediates and their use” (E.R. SQUIBB & SONS, INC., priority 1990, dated 1992).
